According to patent US11998515B1, “Enhancement of curcumin plasma levels using eucalyptol co-administration” (KING FAISAL UNIVERSITY, priority 2023, dated 2024):

Experiment: Curcumin concentration in blood of rats after ten days of once-daily oral dosing, determined by HPLC/DAD
Type: in vivo
Procedure: This experiment involved the use of 6 groups of rats (n=6):
Group 1: is the control group, where the animals received a solution of 0.5% carboxy methyl cellulose (CMC) in normal saline (formulation vehicle) once daily orally for ten days.
Group 2: Rats were given Eucalyptol (20 mg/kg) solubilized in 0.5% carboxy methyl cellulose (CMC) in normal saline once a day orally for ten days.
Group 3: Rats were administered curcumin (10 mg/kg) solubilized in 0.5% carboxy methyl cellulose (CMC) in normal saline once daily orally for ten days.
Groups 4, 5 and 6: Rats were given combinations of curcumin (10 mg/kg) with Eucalyptol (5 mg/kg, group 4), (10 mg/kg group 5), and (20 mg/kg, group 6), solubilized in 0.5% carboxy methyl cellulose (CMC) in normal saline orally once daily for ten days.
After the last dose on day 10, blood samples were withdrawn from animals after 0.5, 1, 2, 4, 6, 12 and 24 hours, and HPLC/DAD techniques determined the concentrations of curcumin.

## COc1cc(/C=C/C(=O)CC(=O)/C=C/c2ccc(O)c(OC)c2)ccc1O [curcumin]
After last dose on day 10, curcumin 10 mg/kg alone
  time after administration at which curcumin concentration increased in serum: 1 h
After last dose on day 10, curcumin 10 mg/kg alone (group 3)
  time after administration at which curcumin concentration reached the maximum concentration in serum: 6 h
